Consider 27 compounds from patent publication US9637469B2, “Pyridine derivative” (Teijin Pharma Limited, priority 2012, dated 2017).

The first experiment has as its target T1, human URAT1 (Homo sapiens, UniProt Q96S37).
T1 construct: Full-length cDNA of human URAT1 (hURAT1)
T1 sequence (Q96S37 1-553): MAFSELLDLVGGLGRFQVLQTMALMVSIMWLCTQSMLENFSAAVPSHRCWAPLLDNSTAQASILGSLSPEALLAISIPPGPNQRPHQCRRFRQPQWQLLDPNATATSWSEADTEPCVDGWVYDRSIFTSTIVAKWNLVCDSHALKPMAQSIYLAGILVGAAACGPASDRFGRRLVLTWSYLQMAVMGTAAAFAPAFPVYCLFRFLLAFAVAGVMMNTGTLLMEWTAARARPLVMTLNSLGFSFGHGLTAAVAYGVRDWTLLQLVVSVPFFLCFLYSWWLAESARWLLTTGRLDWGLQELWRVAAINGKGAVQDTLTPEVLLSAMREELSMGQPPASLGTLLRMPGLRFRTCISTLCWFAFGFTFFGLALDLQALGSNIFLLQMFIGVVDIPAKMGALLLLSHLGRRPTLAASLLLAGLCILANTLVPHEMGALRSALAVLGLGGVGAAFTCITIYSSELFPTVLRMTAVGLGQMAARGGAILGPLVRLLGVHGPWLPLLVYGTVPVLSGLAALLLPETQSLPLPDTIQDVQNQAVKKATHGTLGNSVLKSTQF
The experiment in a line: Test for inhibition of uric acid transport using human URAT1-expressing cells.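 Also: three stars up to 0.2 µM two stars 0.2-2 µM one star 2-20 µM.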 The class given is cell-based. Conditions: HEK 293 cells expressing human URAT1; 14C-labeled uric acid 25 μM; uptake 37° C. for 5 min. The method, then:
(1) Preparation of the Test Compound
The test compound was dissolved in DMSO (produced by Sigma) to a concentration of 20 mM and was subsequently used by diluting to desired concentrations.
(2) Test for Inhibition of Uric Acid Transport Using Human URAT1-Expressing Cells;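 also: three stars up to 0.2 µM two stars 0.2-2 µM one star 2-20 µM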
Full-length cDNA of human URAT1 (hURAT1) (produced by OriGene Technologies, Inc., NCBI Reference Sequence: NM 144585) was subcloned into an expression vector, pCMV6-Kan/Neo (produced by OriGene Technologies, Inc.), and hURAT1 gene was transfected into human embryonic kidney-derived cells (HEK 293 cells) by liposome method using Lipofectamine 2000 (produced by Invitrogen Corporation), whereupon HEK 293 cells expressing human URAT1 gene were screened by its Geneticin resistance. By a method similar to the following method, functional expression of human URAT1 gene was confirmed by using transport of ^14C-labeled uric acid into the cells as an index.
The HEK 293 cells expressing human URAT1 were seeded in a 24-well cell culture dish to a density of 3×10^5 cells/mL/well and were cultured in Dulbecco's modified Eagle's medium (D-MEM medium) containing 10% fetal bovine serum at 37° C. for 2 days. Thereafter, the following test for inhibition of uric acid transport was performed.
After the medium was removed by aspiration from each well, the medium was replaced with a solution obtained by substituting NaCl in Hank's Balanced Salt Solution (HBSS) with Na gluconate (hereinafter, HBSS/Na-gluconate) and the cells were preincubated at 37° C. for about 10 minutes. HBSS/Na-gluconate was removed by aspiration and a ^14C-uric acid solution that was warmed at 37° C. in advance containing various concentrations of the Example compound described in (1) and a radioactive ligand (^14C-labeled uric acid; final concentration 25 μM) was added and an uptake reaction was carried out by incubating at 37° C. for 5 min. After the incubation, ^14C-labeled uric acid solution was removed by aspiration and the cells were washed three times with ice-cold HBSS. The HEK 293 cells expressing human URAT1 were lysed in 0.2 mol/L aqueous NaOH (hereafter, the cell sample) and the cell samples were collected. The cell sample and a liquid scintillation liquid, ULTIMA GOLD (produced by PerkinElmer, Inc.) were mixed and the radioactivity was measured by a liquid scintillation counter (Beckman Coulter, Inc.).
The uric acid transport rate of the Example compound at each concentration (% of control uptake) was calculated relative to the radioactivity (radioactivity in human URAT1 expressing HEK 293 cells without addition of the Example compound (DMSO addition)) showing URAT1-specific uric acid transport as 100%, and the concentration (IC50) of the Example compound at which the uric acid transport rate is inhibited by 50% was determined. In addition, the symbols (*, **, and ***) in the table represent the following inhibitory activity values: • IC50≦_ 0.2 μM: *** • 0.2 μM<IC50≦2 μM: ** • 2 μM<IC50≦20 μM: *
In the case of `O=C(NS(=O)(=O)C1CC1)c1ccc(-c2cccnc2)n1Cc1cc(Cl)ccc1Cl` [Compound B31, N-(cyclopropylsulfonyl)-1-(2,5-dichlorobenzyl)-2-(pyridin-3-yl)-1H-pyrrole-5-carboxamide], the “Inhibitory Activity (IC50 of uric acid transport inhibition)” value (shortened to “Inhibitory Activity”) is listed as “* * *”. As to `O=C(O)c1cnc(-c2cccnc2)n1Cc1cc(Cl)ccc1Cl` [Compound A45, 1-(2,5-dichlorobenzyl)-2-(pyridin-3-yl)-1H-imidazole-5-carboxylic acid], the “Inhibitory Activity” value is reported as “* * *”. `O=C(O)c1c(C2CC2)nc(-c2cccnc2)n1Cc1csc2cccc(C(F)(F)F)c12` [Compound A35, 4-cyclopropyl-2-(pyridin-3-yl)-1-((4-(trifluoromethyl)benzo[b]thiophen-3-yl)methyl)-1H-imidazole-5-carboxylic acid]: the “Inhibitory Activity” value is “* *”. Same read-out and setting: for `Cc1nc(-c2cccnc2)n(Cc2cc(F)ccc2Cl)c1C(=O)O` [Compound A41, 1-(2-chloro-5-fluorobenzyl)-4-methyl-2-(pyridin-3-yl)-1H-imidazole-5-carboxylic acid] the value was “* *”; for `O=C(NS(=O)(=O)C1CC1)c1ccc(-c2cncc(Cl)c2)n1Cc1cc(Cl)ccc1Cl` [Compound B30, 2-(5-chloropyridin-3-yl)-N-(cyclopropylsulfonyl)-1-(2,5-dichlorobenzyl)-1H-pyrrole-5-carboxamide], “* * *”; for `Cc1ccc(C)c(Cn2c(-c3ccncc3)nc(C)c2C(=O)O)c1` [Compound A238, 1-(2,5-dimethylbenzyl)-4-methyl-2-(pyridin-4-yl)-1H-imidazole-5-carboxylic acid], “* *”.

In the case of `CC(C)(O)c1nc(-c2cncc(Cl)c2)n(Cc2cc(Cl)ccc2Cl)c1C(=O)O` [Compound A213, 2-(5-chloropyridin-3-yl)-1-(2,5-dichlorobenzyl)-4-(2-hydroxypropan-2-yl)-1H-imidazole-5-carboxylic acid], the “Inhibitory Activity” value was “* * *”. For `C#Cc1nc(-c2cncc(Cl)c2)n(Cc2cc(Cl)ccc2Cl)c1C(=O)O` [Compound A209, 2-(5-chloropyridin-3-yl)-1-(2,5-dichlorobenzyl)-4-ethynyl-1H-imidazole-5-carboxylic acid], the “Inhibitory Activity” value is “* * *”. On the same count and under the same terms, as for `Cc1cncc(-c2nc(C)c(C(=O)O)n2Cc2sc(Cl)cc2Cl)c1` [Compound A230, 1-((2,4-dichlorothiophen-5-yl)methyl)-4-methyl-2-(5-methylpyridin-3-yl)-1H-imidazole-5-carboxylic acid], the entry is “* *”; as for `Cc1nc(Oc2cnccc2Br)n(Cc2cc(Cl)ccc2Cl)c1C(=O)O` [Compound A258, 2-((4-bromopyridin-3-yl)oxy)-1-(2,5-dichlorobenzyl)-4-methyl-1H-imidazole-5-carboxylic acid], “* * *”; as for `Cc1nc(-c2cncc(-c3ccccc3)c2)n(Cc2cc(Cl)ccc2Cl)c1C(=O)O` [Compound A176, 1-(2,5-dichlorobenzyl)-4-methyl-2-(5-phenylpyridin-3-yl)-1H-imidazole-5-carboxylic acid], “* * *”. Turning to `Cc1nc(-c2cncc(F)c2)n(Cc2cc(C(F)(F)F)ccc2C(F)(F)F)c1C(=O)O` [Compound A170, 1-(2,5-bis(trifluoromethyl)benzyl)-2-(5-fluoropyridin-3-yl)-4-methyl-1H-imidazole-5-carboxylic acid], the “Inhibitory Activity” value was “* *”.

Take `CC(C)(O)c1nc(-c2cncc(F)c2)n(Cc2cc(Cl)ccc2Cl)c1C(=O)O` [Compound A212, 1-(2,5-dichlorobenzyl)-2-(5-fluoropyridin-3-yl)-4-(2-hydroxypropan-2-yl)-1H-imidazole-5-carboxylic acid]: the “Inhibitory Activity” value is on record as “* * *”. Turning to `CCc1nc(-c2cncc(F)c2)n(Cc2cccc3ccccc23)c1C(=O)O` [Compound A148, 4-ethyl-2-(5-fluoropyridin-3-yl)-1-(naphthalen-1-ylmethyl)-1H-imidazole-5-carboxylic acid], the “Inhibitory Activity” value is recorded as “* *”. Still for that read-out and setting: for `Cc1nc(-c2cccnc2)n(Cc2cccc(Br)c2)c1C(=O)O` [Compound A55, 1-(3-bromobenzyl)-4-methyl-2-(pyridin-3-yl)-1H-imidazole-5-carboxylic acid] the value was “* *”. In the case of `O=C(O)c1ccc(-c2cncc(Cl)c2)n1Cc1cccc2ccsc12` [Compound B23, 1-(benzo[b]thiophen-7-ylmethyl)-2-(5-chloropyridin-3-yl)-1H-pyrrole-5-carboxylic acid], the “Inhibitory Activity” value was “* * *”. For `CCc1nc(-c2cncc(F)c2)n(Cc2cc(Cl)ccc2Cl)c1C(=O)O` [Compound A150, 1-(2,5-dichlorobenzyl)-4-ethyl-2-(5-fluoropyridin-3-yl)-1H-imidazole-5-carboxylic acid], the “Inhibitory Activity” value is “* * *”. Still for that read-out and setting: as for `Cc1nc(-c2cccnc2)n(Cc2ccc(Cl)cc2Cl)c1C(=O)O` [Compound A77, 1-(2,4-dichlorobenzyl)-4-methyl-2-(pyridin-3-yl)-1H-imidazole-5-carboxylic acid], the entry is “* *”; as for `Cc1ccc(-c2nc(C)c(C(=O)O)n2Cc2cc(Cl)ccc2Cl)cn1` [Compound A159, 1-(2,5-dichlorobenzyl)-4-methyl-2-(6-methylpyridin-3-yl)-1H-imidazole-5-carboxylic acid], “* *”. On the same count and under the same terms, for `O=C(O)C1(Sc2cnc(-c3cncc(Cl)c3)n2Cc2cc(Cl)ccc2Cl)CCC1` [Compound A263, 1-((2-(5-chloropyridin-3-yl)-1-(2,5-dichlorobenzyl)-1H-imidazol-5-yl)thio)cyclobutanecarboxylic acid] the value was “* *”. On the same count and under the same terms, for `CS(=O)(=O)NC(=O)c1ccc(-c2cccnc2)n1Cc1cccc2ccccc12` [Compound B24, N-(methylsulfonyl)-1-(naphthalen-1-ylmethyl)-2-(pyridin-3-yl)-1H-pyrrole-5-carboxamide] the value was “* * *”; for `O=C(O)c1c(C2=CCCC2)nc(-c2cccnc2)n1Cc1cc(Cl)ccc1Cl` [Compound A103, 4-(1-cyclopenten-1-yl)-1-(2,5-dichlorobenzyl)-2-(pyridin-3-yl)-1H-imidazole-5-carboxylic acid], “* *”.

Still in this experiment, the particulars now being: HEK 293 cells expressing human URAT1; 14C-labeled uric acid 25 μM; uptake 37° C. for 5 min; read-out: Inhibitory Activity (IC50 of uric acid transport inhibition).
Broadly, the IC50 is the concentration that gives 50% inhibition. As for `COc1ncccc1-c1nc(C)c(C(=O)O)n1Cc1cccc2ccccc12` [Compound A125], the IC50 fell in the range of 2 to 20 µM. On the same count and under the same terms, for `Cc1nc(-c2cncc(F)c2)n(C(C)c2cc(Cl)ccc2Cl)c1C(=O)O` (stereo not drawn) [Compound A222] the value was 2 to 20 µM; for `Cc1nc(-c2cncc(OCCCO)c2)n(Cc2cc(Cl)ccc2Cl)c1C(=O)O` [Compound A187], 2 to 20 µM; for `Cc1nc(-c2cccnc2)n(Cc2ccccc2C(F)(F)F)c1C(=O)O` [Compound A60], 2 to 20 µM. On the same count and under the same terms, as for `Cc1nc(-c2ccccn2)n(Cc2cccc3ccccc23)c1C(=O)O` [Compound A243], the figure is 2 to 20 µM.
